Among the data in patent publication US10214509B2, “Amino-substituted heterocyclic derivatives as sodium channel inhibitors” (ALMIRALL, S.A., priority 2015, dated 2019) are IC50 values, retold here.

Where only a bound is given, the exact number is not on record here.

Data set [1] deals with voltage-gated sodium channel Nav1.7 (Homo sapiens (Human), UniProt Q15858). As to the kind of experiment: Nav1.7 screening assay, IonWorks Quattro automated patch-clamp electrophysiology. The data set is classed as cell-based. Conditions: stable cell line expressing Nav1.7; holding potential −100 mV; compound incubation 5 minutes; IC50 fitted to percent block; read-out: Nav 1.7 IC50. Here is the method:
(§1) Assay Procedure Nav1.7 and Nav1.5 Screening Assay
(§2) Stable cell lines expressing the full-length protein of the voltage-gated sodium channels Nav1.7 or Nav1.5, with or without one beta-1, beta-2, beta-3, or beta-4 subunit, are created by transfected CHO cells or HEK293 cells, or any other suitable cell line, with a vector construct containing the complete open reading frame under a suitable promoter, as well known in the art.
(§3) Electrophysiological studies are performed with an IonWorks Quattro (Molecular Devices Corp.) automated patch-clamp electrophysiology platform as described by (Schroeder K et al. Journal of Biomolecular Screening 2003, 8 (1), 50-64). Buffers for the experiments have the following composition (mM): Internal solution; K-gluconate 100, KCl 40, MgCl2 3.2, HEPES 5, EGTA 3, pH 7.3. To this amphotericin B is added to final concentration of 0.1 mg/ml to generate access solution. External solution; Dulbecco's Phosphate buffered saline (D-PBS) NaCl 137.93, KCl 2.67, KH2PO4 1.47, Na2HPO4 8.06, CaCl2 0.90, MgCl2 0.49. Prior to the experiment the cells expressing the voltage-gated ion channel of interest are detached from the tissue culture flasks, centrifuged and resuspended in D-PBS. Compounds are prepared and serially diluted in DMSO and finally diluted 1:100 in D-PBS. Cells are exposed to compounds through the pipetting system integrated into the platform and the voltage-gated ion channel of interest is activated with specific voltage stimulation protocols. The following voltage stimulation protocol is used for testing compounds against the voltage-gated sodium channel Nav1.7; from a holding potential of −100 mV a train of eight 60 ms depolarising steps to −20 mV at a frequency of 14 Hz are employed followed by a further step to −20 mV for 2000 ms. After which the voltage is returned to −100 mV for 10 ms before another voltage step to −20 mV for 60 ms is applied. The following voltage stimulation protocol is used for testing compounds against the voltage-gated sodium channel Nav1.5; from a holding potential of −120 mV a train of twenty-six 120 ms depolarising steps to −20 mV at a frequency of 5 Hz are employed. Recordings are made before and after compound addition with the compound incubation time being 5 minutes.
(§4) Percent block was calculated for each concentration in duplicate for peak 1 and peak 10 and peak 1 and 25 for Nav 1.7 and Nav 1.5 respectively in order to assess compound activity at close and inactivated states and IC50 curves were fitted to percent block as a function of concentration.

Data set [2] addresses voltage-gated sodium channel Nav1.5 (Homo sapiens (Human), UniProt Q14524). Kind of data set: Nav1.5 screening assay, IonWorks Quattro automated patch-clamp electrophysiology. The data set is classed as cell-based. The note with it: stable cell line expressing Nav1.5; holding potential −120 mV; compound incubation 5 minutes; IC50 fitted to percent block; read-out: Nav 1.5 IC50. Here is the method: as §1, §2, §3, §4

voltage-gated sodium channel Nav1.7, sequence (Q15858 whole entry): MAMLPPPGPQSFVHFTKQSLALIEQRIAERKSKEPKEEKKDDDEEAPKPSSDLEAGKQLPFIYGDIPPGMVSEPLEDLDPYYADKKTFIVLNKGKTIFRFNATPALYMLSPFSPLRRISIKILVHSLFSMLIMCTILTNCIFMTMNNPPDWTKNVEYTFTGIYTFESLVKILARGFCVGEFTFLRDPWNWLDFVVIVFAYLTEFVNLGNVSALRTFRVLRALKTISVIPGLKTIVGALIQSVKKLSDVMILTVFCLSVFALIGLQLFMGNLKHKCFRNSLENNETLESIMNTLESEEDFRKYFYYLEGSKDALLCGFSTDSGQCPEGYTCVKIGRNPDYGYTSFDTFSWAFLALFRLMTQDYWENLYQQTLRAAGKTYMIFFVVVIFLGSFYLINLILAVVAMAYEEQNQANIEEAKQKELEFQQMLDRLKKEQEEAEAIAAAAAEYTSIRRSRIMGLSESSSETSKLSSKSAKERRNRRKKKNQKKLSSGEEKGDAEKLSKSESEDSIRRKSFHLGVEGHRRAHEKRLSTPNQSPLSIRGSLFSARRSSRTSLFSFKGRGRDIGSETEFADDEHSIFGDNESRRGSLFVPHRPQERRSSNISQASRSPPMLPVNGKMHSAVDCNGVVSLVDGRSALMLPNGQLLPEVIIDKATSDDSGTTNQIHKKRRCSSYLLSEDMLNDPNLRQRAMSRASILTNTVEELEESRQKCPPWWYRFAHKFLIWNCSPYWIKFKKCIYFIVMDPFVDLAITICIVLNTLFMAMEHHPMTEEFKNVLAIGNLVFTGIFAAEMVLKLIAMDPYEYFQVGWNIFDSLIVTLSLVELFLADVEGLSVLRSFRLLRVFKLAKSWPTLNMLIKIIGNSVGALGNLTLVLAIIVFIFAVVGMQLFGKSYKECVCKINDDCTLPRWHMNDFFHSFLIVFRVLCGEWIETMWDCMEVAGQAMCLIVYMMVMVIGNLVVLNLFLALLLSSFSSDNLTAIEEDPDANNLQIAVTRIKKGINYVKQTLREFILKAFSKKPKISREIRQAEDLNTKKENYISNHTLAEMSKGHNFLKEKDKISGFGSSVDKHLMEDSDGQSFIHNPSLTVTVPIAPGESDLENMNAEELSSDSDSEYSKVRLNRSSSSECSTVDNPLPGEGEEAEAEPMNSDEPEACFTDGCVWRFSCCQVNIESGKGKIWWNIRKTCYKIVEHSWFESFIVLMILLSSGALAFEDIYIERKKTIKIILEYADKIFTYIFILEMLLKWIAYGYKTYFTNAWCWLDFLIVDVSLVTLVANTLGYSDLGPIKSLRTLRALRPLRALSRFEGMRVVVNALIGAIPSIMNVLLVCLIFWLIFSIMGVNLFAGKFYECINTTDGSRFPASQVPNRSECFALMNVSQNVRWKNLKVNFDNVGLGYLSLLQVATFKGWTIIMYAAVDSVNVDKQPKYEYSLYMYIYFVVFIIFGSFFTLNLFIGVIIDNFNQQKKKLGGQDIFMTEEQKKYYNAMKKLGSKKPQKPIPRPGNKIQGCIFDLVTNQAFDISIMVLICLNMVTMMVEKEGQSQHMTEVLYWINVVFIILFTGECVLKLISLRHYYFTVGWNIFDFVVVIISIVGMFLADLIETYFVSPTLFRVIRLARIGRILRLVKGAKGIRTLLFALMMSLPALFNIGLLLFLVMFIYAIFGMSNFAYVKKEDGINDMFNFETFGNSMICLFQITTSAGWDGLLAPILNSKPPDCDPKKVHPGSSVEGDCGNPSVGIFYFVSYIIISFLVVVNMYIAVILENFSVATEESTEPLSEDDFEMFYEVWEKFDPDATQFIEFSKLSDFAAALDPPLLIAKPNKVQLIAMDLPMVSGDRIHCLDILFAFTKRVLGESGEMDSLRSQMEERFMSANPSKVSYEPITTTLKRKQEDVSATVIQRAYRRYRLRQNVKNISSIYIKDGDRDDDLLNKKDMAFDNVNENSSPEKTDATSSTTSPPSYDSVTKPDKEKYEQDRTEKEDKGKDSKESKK
voltage-gated sodium channel Nav1.5, sequence (Q14524 whole entry): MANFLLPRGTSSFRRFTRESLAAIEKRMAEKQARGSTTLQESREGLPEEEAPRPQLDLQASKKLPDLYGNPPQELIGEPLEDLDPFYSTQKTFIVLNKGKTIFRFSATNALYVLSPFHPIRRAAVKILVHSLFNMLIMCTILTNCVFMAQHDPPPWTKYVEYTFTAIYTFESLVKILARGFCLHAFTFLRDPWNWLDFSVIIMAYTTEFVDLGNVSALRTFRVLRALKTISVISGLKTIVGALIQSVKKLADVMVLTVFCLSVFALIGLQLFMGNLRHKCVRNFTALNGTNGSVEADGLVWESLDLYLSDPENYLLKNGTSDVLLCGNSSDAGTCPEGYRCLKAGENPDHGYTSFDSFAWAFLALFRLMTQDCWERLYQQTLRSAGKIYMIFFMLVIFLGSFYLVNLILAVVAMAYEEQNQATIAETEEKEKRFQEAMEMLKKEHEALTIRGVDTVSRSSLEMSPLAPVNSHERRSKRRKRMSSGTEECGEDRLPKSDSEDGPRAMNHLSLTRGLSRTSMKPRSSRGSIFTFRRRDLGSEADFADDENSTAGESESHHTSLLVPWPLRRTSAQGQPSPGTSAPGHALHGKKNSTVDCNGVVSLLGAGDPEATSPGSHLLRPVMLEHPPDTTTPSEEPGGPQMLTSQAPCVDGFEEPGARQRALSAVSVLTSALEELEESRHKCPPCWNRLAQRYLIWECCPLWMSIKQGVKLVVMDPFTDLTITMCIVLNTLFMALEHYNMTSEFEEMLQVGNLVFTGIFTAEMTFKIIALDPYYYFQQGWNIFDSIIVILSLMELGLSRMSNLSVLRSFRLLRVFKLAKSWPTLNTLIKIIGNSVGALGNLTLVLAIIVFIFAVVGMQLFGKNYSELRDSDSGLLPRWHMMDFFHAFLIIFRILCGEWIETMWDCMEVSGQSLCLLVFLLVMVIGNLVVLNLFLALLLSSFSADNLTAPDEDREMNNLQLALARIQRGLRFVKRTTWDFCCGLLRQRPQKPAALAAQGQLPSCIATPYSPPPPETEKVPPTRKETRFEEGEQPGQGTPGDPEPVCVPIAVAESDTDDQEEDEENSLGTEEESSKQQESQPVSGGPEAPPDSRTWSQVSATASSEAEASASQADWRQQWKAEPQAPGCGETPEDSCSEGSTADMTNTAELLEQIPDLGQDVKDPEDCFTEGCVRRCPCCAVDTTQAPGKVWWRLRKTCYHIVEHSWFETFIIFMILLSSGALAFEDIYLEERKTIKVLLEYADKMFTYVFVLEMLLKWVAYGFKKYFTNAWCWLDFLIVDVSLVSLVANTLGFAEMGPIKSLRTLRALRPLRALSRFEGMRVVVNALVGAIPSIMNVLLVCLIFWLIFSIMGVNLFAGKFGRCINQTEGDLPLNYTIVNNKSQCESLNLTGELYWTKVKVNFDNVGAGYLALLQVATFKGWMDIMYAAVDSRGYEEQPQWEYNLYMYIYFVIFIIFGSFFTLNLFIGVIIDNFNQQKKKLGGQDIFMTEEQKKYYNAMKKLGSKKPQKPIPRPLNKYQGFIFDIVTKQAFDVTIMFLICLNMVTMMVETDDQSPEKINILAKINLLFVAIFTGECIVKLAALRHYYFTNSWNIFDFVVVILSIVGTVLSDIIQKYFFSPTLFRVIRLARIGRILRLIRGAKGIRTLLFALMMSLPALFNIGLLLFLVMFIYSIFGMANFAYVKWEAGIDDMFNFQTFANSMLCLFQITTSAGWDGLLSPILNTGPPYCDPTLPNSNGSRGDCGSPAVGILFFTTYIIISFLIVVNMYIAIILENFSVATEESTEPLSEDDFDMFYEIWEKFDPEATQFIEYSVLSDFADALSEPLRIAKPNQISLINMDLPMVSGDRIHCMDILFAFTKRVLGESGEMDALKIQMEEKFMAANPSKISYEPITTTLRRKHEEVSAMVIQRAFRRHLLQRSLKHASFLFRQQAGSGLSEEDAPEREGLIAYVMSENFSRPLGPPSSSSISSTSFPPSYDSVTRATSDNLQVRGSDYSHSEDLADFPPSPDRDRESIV

Turning to “5-Amino-1-(2-(2-methoxyethoxy)phenyl)-3-methyl-N-(2-methyl-4-(trifluoromethyl)phenyl)-1H-pyrazole-4-carboxamide [Example 115]”, the values for the IC50 in data set [1] and in data set [2] were 700 nM and over 33000 nM, respectively.
With `COc1ccccc1-n1ncc(C(=O)N2CCc3cc(Cl)ccc32)c1N` [Example 61, (5-Amino-1-(2-methoxyphenyl)-1H-pyrazol-4-yl)(5-chloroindolin-1-yl)methanone], the results for the 50% inhibitory concentration (IC50) in data set [1] and in data set [2] were 900 nM and 28000 nM, respectively.
In the case of `CCc1nn(-c2ccccc2OC)c(N)c1C(=O)Nc1ccc(C(F)(F)F)cn1` [Example 114, 5-Amino-3-ethyl-1-(2-methoxyphenyl)-N-(5-(trifluoromethyl)pyridin-2-yl)-1H-pyrazole-4-carboxamide], the 50% inhibitory concentration (IC50) in data set [1] is 400 nM; in data set [2] it was over 33000 nM.
In the case of `COc1ccccc1-n1ncc(C(=O)Nc2ccc(Cl)cc2)c1N` [Example 1, 5-Amino-N-(4-chlorophenyl)-1-(2-methoxyphenyl)-1H-pyrazole-4-carboxamide], the IC50 in data set [1] came out at 700 nM; in data set [2] it was 21000 nM.
In the case of `Cc1ccccc1-n1ncc(C(=O)Nc2ccc(Cl)cc2F)c1N` [Example 7, 5-Amino-N-(4-chloro-2-fluoro-phenyl)-1-(o-tolyl)-1H-pyrazole-4-carboxamide], the IC50 is 300 nM in data set [1] and over 33000 nM in data set [2].
For the compound `Cc1c(F)cccc1-n1ncc(C(=O)N2CCc3cc(Cl)ccc32)c1N` [Example 57, (5-Amino-1-(3-fluoro-2-methylphenyl)-1H-pyrazol-4-yl)(5-chloroindolin-1-yl)methanone], the IC50 in data set [1] is 800 nM; in data set [2] it was over 33000 nM.
With `COCCOc1ccccc1-n1nc(C)c(C(=O)Nc2ccc(C(F)(F)F)cc2F)c1N` [Example 38, 5-Amino-N-(2-fluoro-4-(trifluoromethyl)phenyl)-1-(2-(2-methoxyethoxy)phenyl)-3-methyl-1H-pyrazole-4-carboxamide], the IC50 is 700 nM in data set [1] and over 33000 nM in data set [2].
In the case of `Cc1nn(-c2cccc(F)c2C)c(N)c1C(=O)Nc1ccc(Cl)cn1` [Example 137, 5-Amino-N-(5-chloro-2-pyridyl)-1-(3-fluoro-2-methylphenyl)-3-methyl-pyrazole-4-carboxamide], the 50% inhibitory concentration (IC50) was 600 nM in data set [1] and over 33000 nM in data set [2].
Turning to `CCc1ccccc1-n1ncc(C(=O)Nc2ccc(OCC(F)(F)F)cn2)c1N` [Example 140, 5-Amino-1-(2-ethylphenyl)-N-(5-(2,2,2-trifluoroethoxy)pyridin-2-yl)-1H-pyrazole-4-carboxamide], the figures for the 50% inhibitory concentration (IC50) in data set [1] and in data set [2] were 1000 nM and over 33000 nM, respectively.
Turning to `Cc1c(F)cccc1-n1cnc(C(=O)Nc2ccc(C(F)(F)F)cn2)c1N` [Example 251, 5-Amino-1-(3-fluoro-2-methylphenyl)-N-(5-(trifluoromethyl)pyridin-2-yl)-1H-imidazole-4-carboxamide], the IC50 in data set [1] worked out at 200 nM.
As for `COc1cc(-c2ccccc2-n2ncc(C(=O)Nc3ccc(Cl)cn3)c2N)ccn1` [Example 197, 5-Amino-N-(5-chloropyridin-2-yl)-1-(2-(2-methoxypyridin-4-yl)phenyl)-1H-pyrazole-4-carboxamide], the concentration for half-maximal inhibition (IC50) in data set [1] was 1000 nM; in data set [2], over 33000 nM.
The matching figures for `Cc1nn(-c2ccccc2F)c(N)c1C(=O)Nc1ccc(C(F)(F)F)cn1` [Example 153, 5-Amino-1-(2-fluorophenyl)-3-methyl-N-(5-(trifluoromethyl)pyridin-2-yl)-1H-pyrazole-4-carboxamide]: 400 nM and over 33000 nM.
On to `Cc1c(F)cccc1-n1ncc(C(=O)Nc2ccc(OC(F)(F)F)cn2)c1N` [Example 55, 5-Amino-1-(3-fluoro-2-methylphenyl)-N-(5-(trifluoromethoxy)pyridin-2-yl)-1H-pyrazole-4-carboxamide], for which the IC50 in data set [1] is 500 nM; in data set [2], over 33000 nM.
For the compound `COc1ccccc1-n1cnc(C(=O)Nc2ccc(Cl)cc2)c1N` [Example 254, 5-Amino-N-(4-chlorophenyl)-1-(2-methoxyphenyl)-1H-imidazole-4-carboxamide], the IC50 is 1900 nM in data set [1] and over 33000 nM in data set [2].
The matching figures for `CCc1nn(-c2cccc(F)c2C)c(N)c1C(=O)Nc1ccc(C(F)(F)F)cn1` [Example 143, 5-Amino-3-ethyl-1-(3-fluoro-2-methylphenyl)-N-[5-trifluoromethyl-2-pyridyl]pyrazole-4-carboxamide]: 300 nM and 10000 nM.
Consider `Nc1c(C(=O)Nc2ccc(Cl)cn2)cnn1-c1ccccc1-c1cccnc1` [Example 196, 5-Amino-N-(5-chloropyridin-2-yl)-1-(2-(pyridin-3-yl)phenyl)-1H-pyrazole-4-carboxamide], for which the IC50 was found to be 700 nM in data set [1] and 17000 nM in data set [2].
Turning to `Cc1c(F)cccc1-n1nnc(C(=O)Nc2ccc(Cl)cn2)c1N` [Example 75, 5-Amino-N-(5-chloropyridin-2-yl)-1-(3-fluoro-2-methylphenyl)-1H-1,2,3-triazole-4-carboxamide], the half-inhibitory concentration (IC50) in data set [1] is 800 nM; in data set [2] it was over 33000 nM.
On the same counts, the results for `Nc1c(C(=O)Nc2ccc(C(F)(F)F)cn2)cnn1-c1ccccc1O` [Example 208, 5-Amino-1-(2-hydroxyphenyl)-N-(5-(trifluoromethyl)pyridin-2-yl)-1H-pyrazole-4-carboxamide] are 300 nM and over 33000 nM.
